Target: T1, human PTHR1 receptor (Homo sapiens, UniProt Q03431)
T1 construct: purchased Eurofins HTS030M
T1 sequence (Q03431 27-593): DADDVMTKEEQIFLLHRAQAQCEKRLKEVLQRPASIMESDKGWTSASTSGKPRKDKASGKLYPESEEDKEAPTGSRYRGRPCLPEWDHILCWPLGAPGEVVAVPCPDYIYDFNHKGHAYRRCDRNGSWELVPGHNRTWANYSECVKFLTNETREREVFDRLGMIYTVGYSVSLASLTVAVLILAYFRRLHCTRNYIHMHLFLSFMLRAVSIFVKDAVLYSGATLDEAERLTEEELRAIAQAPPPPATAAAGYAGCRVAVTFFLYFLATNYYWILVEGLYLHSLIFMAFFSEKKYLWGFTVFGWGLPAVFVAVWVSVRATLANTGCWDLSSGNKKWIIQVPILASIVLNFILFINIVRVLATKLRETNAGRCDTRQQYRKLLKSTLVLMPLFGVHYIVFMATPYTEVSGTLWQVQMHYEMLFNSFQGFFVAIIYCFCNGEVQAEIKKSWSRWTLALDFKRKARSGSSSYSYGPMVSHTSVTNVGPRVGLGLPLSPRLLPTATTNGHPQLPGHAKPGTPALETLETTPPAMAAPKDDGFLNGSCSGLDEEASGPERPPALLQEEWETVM
Test: Competitive antagonist binding assay for hPTH-R1 (radioactive competition binding, SPA beads)
Conditions: human PTHR1 membranes, [125I]-[Nle8,18,Tyr34]-PTH(1-34) 0.2 nM, 90 minutes at room temperature; read-out: hPTHR1 Ki
Protocol: Competitive Antagonist Binding Assay Protocol for hPTH-R1 Antagonists:
The inhibition of binding to the human PTHR1 receptor was measured in a radioactive competition binding assay using the radiolabeled [^125I]-[NLE^8,18, TYR^34]-parathyroid hormone (1-34) ligand (PerkinElmer Cat# NEX244, custom synthesis) as the probe ligand for the receptor. Briefly, membranes from cells expressing the human PTHR1 (Eurofins Cat# HTS030M) were incubated with SPA beads (PerkinElmer Cat# RPNQ0001) in binding assay buffer [50 mM HEPES (Biopioneer Cat# C0113), 5 mM MgCl2 (Sigma Cat# M8266), 10 mM CaCl2 (Fisher Scientific Cat# BP510), 0.1% BSA (Fisher Scientific Cat# BP1600), 0.01% TritonX-100 (Bio-Rad Cat#161-0407), and protease inhibitors (Pierce Cat# A32963); pH 7.4]. Membranes bound to SPA bead were treated with various dilutions of compounds (final concentrations typically 0-10,000 nM), and 0.2 nM radiolabeled ligand in 96-well isoplates (PerkinElmer Cat#6005040) for 90 minutes at room temperature. The radioactive signal was detected using a MicroBetaTriLux 1450 LSC (PerkinElmer). All data manipulations to determine the Ki values were performed using GraphPad v8 (GraphPad, San Diego Calif.).

Ki, < 0.1 µM:
3-({2-[(4-{4-chloro-13-cyano-8-methyl-9-oxo-6,8,10-triazatricyclo[9.4.0.0^2,7]pentadeca-1(11),2(7),3,5,12,14-hexaen-10-yl}-3,5-difluorophenyl)amino]ethyl}amino)propanoic acid [1-217]
4-chloro-10-(2,6-difluoro-4-{[2-(methylamino)ethyl]amino}phenyl)-8-methyl-9-oxo-6,8,10-triazatricyclo[9.4.0.0^2,7]pentadeca-1(11),2(7),3,5,12,14-hexaene-13-carbonitrile [1-211]
10-[4-({2-[(3-amino-2-hydroxypropyl)amino]ethyl}amino)-2,6-difluorophenyl]-4-chloro-8-ethyl-9-oxo-6,8,10-triazatricyclo[9.4.0.0^2,7]pentadeca-1(11),2(7),3,5,12,14-hexaene-13-carbonitrile [1-188]
CNCCNc1cc(F)c(N2C(=O)N(C)c3ncccc3-c3ccc(Cl)cc32)c(F)c1 [1-1, 13-chloro-10-(2,6-difluoro-4-{[2-(methylamino)ethyl]amino}phenyl)-8-methyl-6,8,10-triazatricyclo[9.4.0.0^2,7]pentadeca-1(11),2(7),3,5,12,14-hexaen-9-one]
CCN1C(=O)N(c2c(F)cc(NCCNC)cc2F)c2cc(Cl)ccc2-c2cccnc21 [1-2, 13-chloro-10-(2,6-difluoro-4-{[2-(methylamino)ethyl]amino}phenyl)-8-ethyl-6,8,10-triazatricyclo[9.4.0.0^2,7]pentadeca-1(11),2(7),3,5,12,14-hexaen-9-one]
CCN1C(=O)N(c2c(F)cc(NCCN)cc2F)c2cc(Cl)ccc2-c2cccnc21 [1-3, 10-{4-[(2-aminoethyl)amino]-2,6-difluorophenyl}-13-chloro-8-ethyl-6,8,10-triazatricyclo[9.4.0.0^2,7]pentadeca-1(11),2(7),3,5,12,14-hexaen-9-one]
CCN1C(=O)N(c2c(F)cc(NCCNC3CCOCC3)cc2F)c2cc(Cl)ccc2-c2cccnc21 [1-4, 13-chloro-10-[2,6-difluoro-4-({2-[(oxan-4-yl)amino]ethyl}amino)phenyl]-8-ethyl-6,8,10-triazatricyclo[9.4.0.0^2,7]pentadeca-1(11),2(7),3,5,12,14-hexaen-9-one]
CCN1C(=O)N(c2c(F)cc(NCCNC3CCOC3)cc2F)c2cc(Cl)ccc2-c2cccnc21 (centres unmarked) [1-5, 13-chloro-10-[2,6-difluoro-4-({2-[(oxolan-3-yl)amino]ethyl}amino)phenyl]-8-ethyl-6,8,10-triazatricyclo[9.4.0.0^2,7]pentadeca-1(11),2(7),3,5,12,14-hexaen-9-one]
CCN1C(=O)N(c2c(F)cc(NCCNCCCC(=O)O)cc2F)c2cc(Cl)ccc2-c2cccnc21 [1-6, 4-({2-[(4-{13-chloro-8-ethyl-9-oxo-6,8,10-triazatricyclo[9.4.0.0^2,7]pentadeca-1(11),2(7),3,5,12,14-hexaen-10-yl}-3,5-difluorophenyl)amino]ethyl}amino)butanoic acid]
CCN1C(=O)N(c2c(F)cc(NCCNCCO)cc2F)c2cc(Cl)ccc2-c2cccnc21 [1-7, 13-chloro-10-[2,6-difluoro-4-({2-[(2-hydroxyethyl)amino]ethyl}amino)phenyl]-8-ethyl-6,8,10-triazatricyclo[9.4.0.0^2,7]pentadeca-1(11),2(7),3,5,12,14-hexaen-9-one]
CCN1C(=O)N(c2c(F)cc(NCCNC)cc2F)c2cc(Cl)ccc2-c2cc(Cl)cnc21 [1-8, 4,13-dichloro-10-(2,6-difluoro-4-{[2-(methylamino)ethyl]amino}phenyl)-8-ethyl-6,8,10-triazatricyclo[9.4.0.0^2,7]pentadeca-1(11),2(7),3,5,12,14-hexaen-9-one]
CCN1C(=O)N(c2c(F)cc(NCCN)cc2F)c2cc(Cl)ccc2-c2cc(Cl)cnc21 [1-9, 10-{4-[(2-aminoethyl)amino]-2,6-difluorophenyl}-4,13-dichloro-8-ethyl-6,8,10-triazatricyclo[9.4.0.0^2,7]pentadeca-1(11),2(7),3,5,12,14-hexaen-9-one]
CCN1C(=O)N(c2c(F)cc(NCCNCCCC(=O)O)cc2F)c2cc(Cl)ccc2-c2cc(Cl)cnc21 [1-10, 4-({2-[(4-{4,13-dichloro-8-ethyl-9-oxo-6,8,10-triazatricyclo[9.4.0.0^2,7]pentadeca-1(11),2(7),3,5,12,14-hexaen-10-yl}-3,5-difluorophenyl)amino]ethyl}amino)butanoic Acid]
CCN1C(=O)N(c2c(F)cc(NCCNCCO)cc2F)c2cc(Cl)ccc2-c2cc(Cl)cnc21 [1-11, 4,13-dichloro-10-[2,6-difluoro-4-({2-[(2-hydroxyethyl)amino]ethyl}amino)phenyl]-8-ethyl-6,8,10-triazatricyclo[9.4.0.0^2,7]pentadeca-1(11),2(7),3,5,12,14-hexaen-9-one]
CCN1C(=O)N(c2c(F)cc(NCCNC3CCOCC3)cc2F)c2cc(Cl)ccc2-c2cc(Cl)cnc21 [1-12, 4,13-dichloro-10-[2,6-difluoro-4-({2-[(oxan-4-yl)amino]ethyl}amino)phenyl]-8-ethyl-6,8,10-triazatricyclo[9.4.0.0^2,7]pentadeca-1(11),2(7),3,5,12,14-hexaen-9-one]
CCN1C(=O)N(c2c(F)cc(NCCNC3CCOC3)cc2F)c2cc(Cl)ccc2-c2cc(Cl)cnc21 (centres unmarked) [1-13, 4,13-dichloro-10-[2,6-difluoro-4-({2-[(oxolan-3-yl)amino]ethyl}amino)phenyl]-8-ethyl-6,8,10-triazatricyclo[9.4.0.0^2,7]pentadeca-1(11),2(7),3,5,12,14-hexaen-9-one]
CCN1C(=O)N(c2c(F)cc(NCCNC)cc2F)c2cc(Cl)ccc2-c2cc(F)cnc21 [1-14, 13-chloro-10-(2,6-difluoro-4-{[2-(methylamino)ethyl]amino}phenyl)-8-ethyl-4-fluoro-6,8,10-triazatricyclo[9.4.0.0^2,7]pentadeca-1(11),2(7),3,5,12,14-hexaen-9-one]
CCN1C(=O)N(c2c(F)cc(NCCN)cc2F)c2cc(Cl)ccc2-c2cc(F)cnc21 [1-15, 10-{4-[(2-aminoethyl)amino]-2,6-difluorophenyl}-13-chloro-8-ethyl-4-fluoro-6,8,10-triazatricyclo[9.4.0.0^2,7]pentadeca-1(11),2(7),3,5,12,14-hexaen-9-one]
CCN1C(=O)N(c2c(F)cc(NCCNCCCC(=O)O)cc2F)c2cc(Cl)ccc2-c2cc(F)cnc21 [1-16, 4-({2-[(4-{13-chloro-8-ethyl-4-fluoro-9-oxo-6,8,10-triazatricyclo[9.4.0.0^2,7]pentadeca-1(11),2(7),3,5,12,14-hexaen-10-yl}-3,5-difluorophenyl)amino]ethyl}amino)butanoic acid]
CCN1C(=O)N(c2c(F)cc(NCCNCCO)cc2F)c2cc(Cl)ccc2-c2cc(F)cnc21 [1-17, 13-chloro-10-[2,6-difluoro-4-({2-[(2-hydroxyethyl)amino]ethyl}amino)phenyl]-8-ethyl-4-fluoro-6,8,10-triazatricyclo[9.4.0.0^2,7]pentadeca-1(11),2(7),3,5,12,14-hexaen-9-one]
CCN1C(=O)N(c2c(F)cc(NCCNC)cc2F)c2cc(Cl)ccc2-c2cc(C)cnc21 [1-18, 13-chloro-10-(2,6-difluoro-4-{[2-(methylamino)ethyl]amino}phenyl)-8-ethyl-4-methyl-6,8,10-triazatricyclo[9.4.0.0^2,7]pentadeca-1(11),2(7),3,5,12,14-hexaen-9-one]
CCN1C(=O)N(c2c(F)cc(NCCNC3CCOCC3)cc2F)c2cc(Cl)ccc2-c2cc(F)cnc21 [1-19, 13-chloro-10-[2,6-difluoro-4-({2-[(oxan-4-yl)amino]ethyl}amino)phenyl]-8-ethyl-4-fluoro-6,8,10-triazatricyclo[9.4.0.0^2,7]pentadeca-1(11),2(7),3,5,12,14-hexaen-9-one]
CCN1C(=O)N(c2c(F)cc(NCCNC3CCOC3)cc2F)c2cc(Cl)ccc2-c2cc(F)cnc21 (centres unmarked) [1-20, 13-chloro-10-[2,6-difluoro-4-({2-[(oxolan-3-yl)amino]ethyl}amino)phenyl]-8-ethyl-4-fluoro-6,8,10-triazatricyclo[9.4.0.0^2,7]pentadeca-1(11),2(7),3,5,12,14-hexaen-9-one]

From US20230159532A1, “PARATHYROID HORMONE (PTH) RECEPTOR ANTAGONISTS AND USES THEREOF” (Crinetics Pharmaceuticals, Inc., priority 2021, published 2023)
